Reference: US20260209260A1, “VECTORIZED NHC IRIDIUM(III) COMPLEXES AND USE THEREOF IN PHOTODYNAMIC THERAPY AND/OR DIAGNOSTIC” (CENTRE NATIONAL DE LA RECHERCHE SCIENTIFIQUE, priority 2022, published 2026)
Several values for one entry are separate records, joined by “and”; a condition that tells them apart may be missing. Equal values may be shown once. Read-outs that look alike come from different tables or passages of the source.

Columns and labels:
Format in all cases: cell-based, Human
A549 lung cancer cells = test: Cell viability assay (MTT), dark and blue light; settings: for Photosensitizing index (PI) A549: dark vs blue light 458 nm
Summary of the method: (§1)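 Tumor lines and non-tumor murine MC3T3 osteoblasts and NIH-3T3 fibroblasts were seeded overnight and treated with complexes at 0.1% (v/v) DMSO for 72 h. Light samples were irradiated 10 min after 8 h of dark incubation. Viability was measured by MTT absorbance at 570 nm.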

T24 bladder cancer cells = test: Cell viability assay (MTT), dark and blue light; settings: for Photosensitizing index (PI) T24: dark vs blue light 458 nm
Summary of the method: as §1

Hela cervix cancer cells = test: Cell viability assay (MTT), dark and blue light; settings: for Photosensitizing index (PI) HeLa: dark vs blue light 458 nm
Summary of the method: (§2)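 Absorbance of MTT formazan at 570 nm gives viability after 72 h exposure to the complexes in 0.1% (v/v) DMSO. Irradiated wells got 10 min of 458 nm light after 8 h of dark incubation.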

[1] = system: Scaber bladder cancer cells; test: Cell viability assay (MTT), dark and blue light; settings: for Photosensitizing index (PI) Scaber: dark vs blue light 458 nm
Summary of the method: as §2

MCF7 breast cancer cells = test: Cell viability assay (MTT), dark and blue light; settings: for Photosensitizing index (PI) MCF7: dark vs blue light 458 nm
Summary of the method: as §2

[2] = system: cancer cells (all tumor cell lines tested); test: Cell viability assay (MTT), summary over the cancer cell lines tested; settings: for PI values, mean over cancer cells / PI values, median over cancer cells: dark vs blue light 458 nm
Summary of the method: as §1

[3] = 8 h in the dark, blue light 458 nm 10 min, then dark up to 72 h, read-out: GI50 A549 Blue
[4] = in the dark, 72 h, read-out: GI50 A549 Dark
[5] = 8 h in the dark, blue light 458 nm 10 min, then dark up to 72 h, read-out: GI50 T24 Blue
[6] = in the dark, 72 h, read-out: GI50 T24 Dark
[7] = 8 h in the dark, blue light 458 nm 10 min, then dark up to 72 h, read-out: GI50 HeLa Blue
[8] = in the dark, 72 h, read-out: GI50 HeLa Dark
[9] = 8 h in the dark, blue light 458 nm 10 min, then dark up to 72 h, read-out: GI50 Scaber Blue
[10] = in the dark, 72 h, read-out: GI50 Scaber Dark
[11] = 8 h in the dark, blue light 458 nm 10 min, then dark up to 72 h, read-out: GI50 MCF7 Blue
[12] = in the dark, 72 h, read-out: GI50 MCF7 Dark

SMILES | GI50 (A549 lung cancer cells; [3]) | SI (vs MC3T3) A549 Dark (A549 lung cancer cells) | Photosensitizing index (PI) A549 (A549 lung cancer cells) | GI50 (A549 lung cancer cells; [4]) [µM] | GI50 (T24 bladder cancer cells; [5]) [µM] | Photosensitizing index (PI) T24 (T24 bladder cancer cells) | GI50 (T24 bladder cancer cells; [6]) [µM] | GI50 (Hela cervix cancer cells; [7]) [µM] | SI (vs NIH-3T3) HeLa Dark (Hela cervix cancer cells; dark) | Photosensitizing index (PI) HeLa (Hela cervix cancer cells) | GI50 (Hela cervix cancer cells; [8]) [µM] | GI50 [1, 9] [µM] | SI (vs NIH-3T3) Scaber Blue ([1]; blue light 458 nm) | SI (vs MC3T3) Scaber Dark [1] | SI (vs NIH-3T3) Scaber Dark [1] | Photosensitizing index (PI) Scaber [1] | GI50 [1, 10] [µM] | GI50 (MCF7 breast cancer cells; [11]) [µM] | Photosensitizing index (PI) MCF7 (MCF7 breast cancer cells) | GI50 (MCF7 breast cancer cells; [12]) [µM] | other results
F[P-](F)(F)(F)(F)F.O=C(CCCC[C@@H]1SC[C@@H]2NC(=O)N[C@@H]21)NCCCn1cc[n+]2[c]1[Ir-3]13([c]4ccccc4-c4c5ccccc5cc[n+]41)([c]1ccccc1-c1c4ccccc4cc[n+]13)[n+]1ccccc1-2 [I-h] | 0.8 µM and 0.6 µM | 3.2 | 21.8 | 13.1 | 0.58 | 24.0 | 13.9 | 2.86 | 2.4 | 14.6 | 41.8 | 1 | 10.4 | 1.7 | 4.1 | 24.8 | 24.8 | 0.99 | 12.0 | 11.9 | SI (vs MC3T3) HeLa Blue (Hela cervix cancer cells; blue light 458 nm): 1.7; SI (vs MC3T3) HeLa Dark (Hela cervix cancer cells; dark): 1.0; SI (vs NIH-3T3) MCF7 Dark (MCF7 breast cancer cells; dark): 8.6; PI values, mean over cancer cells [2]: 19.0 fold; PI values, median over cancer cells [2]: 19.3 fold
F[P-](F)(F)(F)(F)F.O=C(CCCC[C@@H]1SC[C@@H]2NC(=O)N[C@@H]21)NCCCn1cc[n+]2[c]1[Ir-3]13([c]4ccccc4-c4sc5ccccc5[n+]41)([c]1ccccc1-c1sc4ccccc4[n+]13)[n+]1ccccc1-2 [I-k] | 1.2 µM | 2.1 | 10.2 | 12.2 | 0.97 | 19.3 | 18.7 | 6.5 | 1.5 | 7.8 | 50.6 | 1.8 | 17.3 | 1.0 | 2.9 | 14.4 | 25.9 | 1.5 | 9.9 | 14.9 | SI (vs MC3T3) T24 Dark (T24 bladder cancer cells; dark): 1.4; SI (vs NIH-3T3) T24 Dark (T24 bladder cancer cells; dark): 4.1; SI (vs MC3T3) Scaber Blue ([1]; blue light 458 nm): 10.7; SI (vs NIH-3T3) MCF7 Blue (MCF7 breast cancer cells; blue light 458 nm): 20.7; SI (vs MC3T3) MCF7 Dark (MCF7 breast cancer cells; dark): 1.7; selectivity for cancer cells over non-tumor cells, in words [2]: most selective effects under irradiated conditions; PI values, mean over cancer cells [2]: 12.9 fold; PI values, median over cancer cells [2]: 12.2 fold; GI50 values, range over tumor cell lines, dark ([2]; in the dark): little toxicity against tumor cells under dark conditions
